# Source: ChEMBL document CHEMBL4732098, “Alkylated monoterpene indole alkaloid derivatives as potent P-glycoprotein inhibitors in resistant cancer cells” (Eur J Med Chem, 2021)
# Columns and labels:
# L5178Y [1] = test: Cytotoxicity against mouse L5178Y cells transfected with human ABCB1 assessed as reduction in cell viability incubated for 24 hrs by MTT assay; assay type: cell-based
# L5178Y [2] = test: Cytotoxicity against mouse L5178Y cells assessed as reduction in cell viability incubated for 24 hrs by MTT assay; assay type: cell-based
# COLO 205 = test: Cytotoxicity against human COLO 205 cells assessed as reduction in cell viability incubated for 24 hrs by MTT assay; assay type: cell-based; settings: COLO 205, 24 h
# COLO 320 [3] = test: Cytotoxicity against human COLO 320 cells assessed as reduction in cell viability incubated for 24 hrs by MTT assay; assay type: cell-based; settings: COLO 320, 24 h
# L5178Y [4] = test: Synergistic cytotoxicity against mouse L5178Y cells transfected with human ABCB1 assessed as combination index measured after 72 hrs in presence doxorubicin by MTT assay based Chou-Talalay method; assay type: functional
# COLO 320 [5] = test: Synergistic cytotoxicity against human resistant COLO 320 cells assessed as combination index measured after 72 hrs in presence doxorubicin by MTT assay based Chou-Talalay method; assay type: functional; settings: dose 2 µM
Structure (SMILES),IC50 (L5178Y [1]) [µM],IC50 (L5178Y [2]) [µM],IC50 (COLO 205) [µM],IC50 (COLO 320 [3]) [µM],CI (L5178Y [4]),CI (COLO 320 [5])
CC[C@@H]1CN(C)[C@H]2Cc3c([nH]c4ccccc34)C(=O)C[C@H]1C2C(=O)OC (some centres undefined),78.8,55.9,> 100,> 100,,
CC[C@H]1CN(C)[C@H]2Cc3c([nH]c4ccccc34)C(=O)C[C@H]1C2C(=O)OC (some centres undefined),91.8,62.5,40.4,71.6,,
CC[C@@H]1CN(C)[C@H]2Cc3c(n(CCc4cccc(Br)c4)c4ccccc34)C(=O)C[C@H]1C2C(=O)OC (some centres undefined),85.6,39.6,> 100,94.8,<1,
C=CCn1c2c(c3ccccc31)C[C@H]1C(C(=O)OC)[C@H](CC2=O)[C@H](CC)CN1C (some centres undefined),96.6,64.2,> 100,> 100,,
CC[C@@H]1CN(C)[C@H]2Cc3c(n(CCc4ccc(Br)cc4)c4ccccc34)C(=O)C[C@H]1C2C(=O)OC (some centres undefined),59.3,71,> 100,> 100,<1,
CC[C@@H]1CN(C)[C@H]2Cc3c(n(Cc4cccc(OC)c4)c4ccccc34)C(=O)C[C@H]1C2C(=O)OC (some centres undefined),36.7,42.1,88.4,84.4,<1,
CC[C@@H]1CN(C)[C@H]2Cc3c(n(Cc4cccc(Cl)c4)c4ccccc34)C(=O)C[C@H]1C2C(=O)OC (some centres undefined),38.1,38.4,> 100,74.7,<1,
CC[C@@H]1CN(C)[C@H]2Cc3c(n(Cc4ccc(C(=O)c5ccccc5)cc4)c4ccccc34)C(=O)C[C@H]1C2C(=O)OC (some centres undefined),> 100,89.3,> 100,> 100,,
CC[C@@H]1CN(C)[C@H]2Cc3c(n(Cc4ccc(C)cc4)c4ccccc34)C(=O)C[C@H]1C2C(=O)OC (some centres undefined),37.1,31.8,11.8,53,<1,<1
CC[C@@H]1CN(C)[C@H]2Cc3c(n(Cc4ccc(OC)cc4)c4ccccc34)C(=O)C[C@H]1C2C(=O)OC (some centres undefined),80.1,86,90.6,76.8,,
CC[C@@H]1CN(C)[C@H]2Cc3c(n(Cc4ccccc4C)c4ccccc34)C(=O)C[C@H]1C2C(=O)OC (some centres undefined),61,42.2,> 100,97.5,<1,
CC[C@@H]1CN(C)[C@H]2Cc3c(n(Cc4ccc([N+](=O)[O-])cc4)c4ccccc34)C(=O)C[C@H]1C2C(=O)OC (some centres undefined),81,63.3,> 100,86.2,,
CC[C@@H]1CN(C)[C@H]2Cc3c(n(Cc4cccc([N+](=O)[O-])c4)c4ccccc34)C(=O)C[C@H]1C2C(=O)OC (some centres undefined),58.9,63.1,> 100,> 100,<1,
CC[C@@H]1CN(C)[C@H]2Cc3c(n(Cc4ccccn4)c4ccccc34)C(=O)C[C@H]1C2C(=O)OC (some centres undefined),> 100,97.6,> 100,> 100,,
CCCn1c2c(c3ccccc31)C[C@H]1C(C(=O)OC)[C@H](CC2=O)[C@H](CC)CN1C (some centres undefined),48.5,35.1,> 100,> 100,<1,
CC[C@@H]1CN(C)[C@H]2Cc3c(n(CCc4ccc(OC)cc4)c4ccccc34)C(=O)C[C@H]1C2C(=O)OC (some centres undefined),37.2,25.5,80,49,<1,<1
CC[C@H]1CN(C)[C@H]2Cc3c(n(CC)c4ccccc34)C(=O)C[C@H]1C2C(=O)OC (some centres undefined),48.4,66.3,> 100,> 100,<1,
CC[C@H]1CN(C)[C@H]2Cc3c(n(Cc4ccc(Br)cc4)c4ccccc34)C(=O)C[C@H]1C2C(=O)OC (some centres undefined),38.5,34.7,28.4,24.8,<1,
CC[C@H]1CN(C)[C@H]2Cc3c(n(Cc4ccc(OC)cc4)c4ccccc34)C(=O)C[C@H]1C2C(=O)OC (some centres undefined),35.6,50.7,58.9,60.3,<1,<1
CC[C@@H]1CN(C)[C@H]2Cc3c(n(Cc4ccc(Cl)cc4)c4ccccc34)C(=O)C[C@H]1C2C(=O)OC (some centres undefined),43.2,48.3,55.5,61.3,<1,
CC[C@H]1CN(C)[C@H]2Cc3c(n(Cc4ccc(Cl)cc4)c4ccccc34)C(=O)C[C@H]1C2C(=O)OC (some centres undefined),24.1,32.4,15.9,23.4,<1,
CC[C@@H]1CN(C)[C@H]2Cc3c(n(CCc4cccc(OC)c4)c4ccccc34)C(=O)C[C@H]1C2C(=O)OC (some centres undefined),78.4,40.6,> 100,> 100,<1,
CC[C@@H]1CN(C)[C@H]2Cc3c(n(CC)c4ccccc34)C(=O)C[C@H]1C2C(=O)OC (some centres undefined),74.4,69.4,> 100,> 100,,
CC[C@@H]1CN(C)[C@H]2Cc3c(n(Cc4cccc(C)c4)c4ccccc34)C(=O)C[C@H]1C2C(=O)OC (some centres undefined),52.8,41.9,93.6,82.2,<1,
CC[C@@H]1CN(C)[C@H]2Cc3c(n(Cc4cc(OC)cc(OC)c4)c4ccccc34)C(=O)C[C@H]1C2C(=O)OC (some centres undefined),39.1,27.8,> 100,> 100,<1,
CC[C@@H]1CN(C)[C@H]2Cc3c(n(Cc4ccc(Br)cc4)c4ccccc34)C(=O)C[C@H]1C2C(=O)OC (some centres undefined),45,36.4,39.7,45.7,<1,
CCCn1c2c(c3ccccc31)C[C@H]1C(C(=O)OC)[C@H](CC2=O)[C@@H](CC)CN1C (some centres undefined),34.7,45.1,25.2,40.5,<1,
CC[C@@H]1CN(C)[C@H]2Cc3c(n(CCCO)c4ccccc34)C(=O)C[C@H]1C2C(=O)OC (some centres undefined),> 100,> 100,> 100,> 100,,
